Drawing on patent US5688666A, “Growth hormone variants with altered binding properties” (Genentech, Inc., priority 1994, dated 1997), this text covers Kd and IC50 for two substances.

pIC50, pKd: −log10 of the molar value.

In experiment [1] the target is anti-β endorphin monoclonal antibody. The note with it: cited from earlier work.
Experiment [2] addresses Mab 1 (monoclonal antibody to hGH). Nature of the experiment: Binding of Mab 1 to hGH and hGH phagemid particles (ELISA). The following applies: read-out: IC50 (concentration to give half-maximal binding to the Mab). How it is done: (§1) After 2 hours at room temperature (rt), the plates were washed well and the indicated Mab (Cunningham et al. supra) was added at 1 μg/ml in buffer A for 2 hours at rt. Following washing, horseradish peroxidase conjugated goat anti-mouse IgG antibody was bound at rt for 1 hour. After a final wash, the peroxidase activity was assayed with the substrate, o-phenylenediamine.

The target of experiment [3] is Mab 8 (monoclonal antibody to hGH). As to the kind of experiment: Binding of Mab 8 to hGH and hGH phagemid particles (ELISA). The following applies: read-out: IC50 (concentration to give half-maximal binding to the Mab). On the procedure: as §1
(In general: An ELISA detects its analyte on a solid surface through an enzyme-linked reagent.)

Experiment [4] concerns the target Mab 7 (monoclonal antibody to hGH). As to the kind of experiment: Binding of Mab 7 to hGH and hGH phagemid particles (ELISA). The following applies: read-out: IC50 (concentration to give half-maximal binding to the Mab). On the procedure: as §1
The target in experiment [5] is Mab 6 (monoclonal antibody to hGH). Nature of the experiment: Binding of Mab 6 to hGH and hGH phagemid particles (ELISA). The note with it: read-out: IC50 (concentration to give half-maximal binding to the Mab). How it is done:
as §1

For experiment [6], the target named is Mab 4 (monoclonal antibody to hGH). Nature of the experiment: Binding of Mab 4 to hGH and hGH phagemid particles (ELISA). The following applies: read-out: IC50 (concentration to give half-maximal binding to the Mab). On the procedure:
as §1

The target in experiment [7] is Mab 5 (monoclonal antibody to hGH). Nature of the experiment: Binding of Mab 5 to hGH and hGH phagemid particles (ELISA). The following applies: read-out: IC50 (concentration to give half-maximal binding to the Mab). On the procedure: as §1
Experiment [8] concerns the target Mab 3 (monoclonal antibody to hGH). Nature of the experiment: Binding of Mab 3 to hGH and hGH phagemid particles (ELISA). The following applies: read-out: IC50 (concentration to give half-maximal binding to the Mab). How it is done:
as §1

In experiment [9] the target is Mab 2 (monoclonal antibody to hGH). Nature of the experiment: Binding of Mab 2 to hGH and hGH phagemid particles (ELISA). The note with it: read-out: IC50 (concentration to give half-maximal binding to the Mab). On the procedure: as §1

Consider “β-endorphin peptide: parent β-endorphin peptide sequence recognised by the anti-β endorphin monoclonal antibody”, for which the pKd (usually −log10 of the Kd, conventionally taken in molar units) in [1] was ~8.15.

Human growth hormone [hGH]: the pIC50 in experiment [2] was 9.40; in experiment [3], 10.00; in experiment [4] it was 10.00; in [5] it was 10.15; in [6] it was 10.00; in experiment [7], 9.70. Further, the pIC50 in experiment [8] is 9.70; in experiment [9] it was 10.40.
